Assay results from patent publication US8242275B2, “Bicyclic pyrazole compounds as antibacterial agents” (Janssen Pharmaceutica NV, priority 2005, dated 2012).
≈ marks a conversion by molar mass, not a printed value.

Key:
Assay in all cases: In vitro antibacterial activity (MIC assay), broth microdilution
Assay type in all cases: cell-based
S. pneumoniae ATCC49619 = conditions: Streptococcus pneumoniae, ATCC49619; read-out: S. pneumoniae ATCC49619 MIC
Experimental: (§1) Minimal inhibitory concentration (MIC) has been an indicator of in vitro antibacterial activity widely used in the art. The in vitro antibacterial activity of the compounds was determined by the broth microdilution method described by the National Committee for Clinical Laboratory Standards (NCCLS) in the NCCLS Document M7-A5, Vol. 20, No. 2, “Methods for Dilution Antimicrobial Susceptibility Test for Bacteria that Grow Aerobically—Fifth Edition”, which is incorporated herein by reference.
(§2) In this method, an aliquot of test compound from an 11-point series of 2-fold serial dilutions of compounds in 100% DMSO was added to wells in microdilution plates. The test organisms were prepared by adjusting the turbidity of actively growing broth cultures so that the final concentration of test organism after addition to wells with or without compounds was approximately 5×10^5 CFU/mL.
(§3) Following inoculation of the microdilution plates, the plates were incubated at 35° C. for 16-24 h and then scored for bacterial growth. […] The amount of growth in the wells containing the test compound was compared with the amount of growth in the growth-control wells (no test compound used) in each plate, and with the amount of growth in the wells containing control compounds (such as ciprofloxacin). Compounds of the present invention were tested against several bacterial strains. The MIC values (in μg/mL) are presented in Table 1 for Gram-negative (E. coli KL-16 (GSC strain 4245); data marked as (*) was obtained with E. coli ATCC25922) and Gram-positive bacteria (S. aureus ATCC13709; S. pneumoniae ATCC49619).

[1] = test system: E. coli KL-16 (GSC strain 4245); conditions: Escherichia coli
Experimental: as §1, §2, §3

S. aureus ATCC13709 = conditions: Staphylococcus aureus, ATCC13709; read-out: S. aureus ATCC13709 MIC
Experimental: as §1, §2, §3

| SMILES | MIC (S. pneumoniae ATCC49619) [µg/mL] | MIC [1] [µg/mL] | MIC (S. aureus ATCC13709) [µg/mL] |
| --- | --- | --- | --- |
| COc1ccc2nccc(-n3cc4c(n3)CCC(NC(=O)c3cc5c(F)cccc5s3)C4)c2c1 (stereo not drawn) [Example 24, 4-Fluoro-benzo[b]thiophene-2-carboxylic acid [2-(6-methoxy-quinolin-4-yl)-4,5,6,7-tetrahydro-2H-indazol-5-yl]-amide] | 4 (≈ 8.46 µM) | > 128 | < 0.125 |
| COc1ccc2nccc(-n3cc4c(n3)CCC(NCc3ccc(N(C)C)cc3)C4)c2n1 (stereo not drawn) [Example 39, (4-Dimethylamino-benzyl)-[2-(6-methoxy-[1,5]naphthyridin-4-yl)-4,5,6,7-tetrahydro-2H-indazol-5-yl]-amine] | 1 (≈ 2.33 µM) | > 128 | 0.5 (≈ 1.17 µM) |
| COc1ccc2nccc(-n3cc4c(n3)CCC(NCC(=O)Nc3cccc(C(F)(F)F)c3)C4)c2n1 (stereo not drawn) [Example 122, 2-[2-(6-Methoxy-[1,5]naphthyridin-4-yl)-4,5,6,7-tetrahydro-2H-indazol-5-ylamino]-N-(3-trifluoromethyl-phenyl)-acetamide] | 32 (≈ 64.5 µM) | > 128 | 2 (≈ 4.03 µM) |
| COc1ccc2nccc(-n3cc4c(n3)CCC(NC(=O)c3ccc(OC)c([N+](=O)[O-])c3)C4)c2n1 (stereo not drawn) [Example 119, 4-Methoxy-N-[2-(6-methoxy-[1,5]naphthyridin-4-yl)-4,5,6,7-tetrahydro-2H-indazol-5-yl]-3-nitro-benzamide] | 8 (≈ 16.9 µM) | > 128 | 4 (≈ 8.43 µM) |
| COc1ccc2nccc(-n3cc4c(n3)CCC(NCC(=O)Nc3ccc(Cl)c(Cl)c3)C4)c2c1 (stereo not drawn) [Example 62, N-(3,4-Dichloro-phenyl)-2-[2-(6-methoxy-quinolin-4-yl)-4,5,6,7-tetrahydro-2H-indazol-5-ylamino]-acetamide] | 16 (≈ 32.2 µM) | > 128 | 1 (≈ 2.01 µM) |
| COc1ccc2nccc(-n3cc4c(n3)CCC(NC(=O)c3cc5c(cc3F)OCCO5)C4)c2n1 (stereo not drawn) [Example 2, 7-Fluoro-2,3-dihydro-benzo[1,4]dioxine-6-carboxylic acid [2-(6-methoxy-[1,5]naphthyridin-4-yl)-4,5,6,7-tetrahydro-2H-indazol-5-yl]-amide] | 8 (≈ 16.8 µM) | > 128 | 0.5 (≈ 1.05 µM) |
| COc1ccc2nccc(-n3cc4c(n3)CCC(NC(=O)c3cc(F)c5c(c3)OCCO5)C4)c2n1 (stereo not drawn) [Example 127, 8-Fluoro-2,3-dihydro-benzo[1,4]dioxine-6-carboxylic acid [2-(6-methoxy-[1,5]naphthyridin-4-yl)-4,5,6,7-tetrahydro-2H-indazol-5-yl]-amide] | 8 (≈ 16.8 µM) | > 128 | 0.5 (≈ 1.05 µM) |
| COc1ccc2nccc(-n3cc4c(n3)CCC(NC(=O)c3nc5ccccc5[nH]3)C4)c2c1 (stereo not drawn) [Example 71, 1H-Benzoimidazole-2-carboxylic acid [2-(6-methoxy-quinolin-4-yl)-4,5,6,7-tetrahydro-2H-indazol-5-yl]-amide] | 8 (≈ 18.2 µM) | > 128 | 2 (≈ 4.56 µM) |
| Cc1cc(-n2cc3c(n2)CCC(NC(=O)c2ccc4c(c2)NC(=O)CS4)C3)c2cc(F)ccc2n1 (stereo not drawn) [Example 82, 3-Oxo-3,4-dihydro-2H-benzo[1,4]thiazine-6-carboxylic acid [2-(6-fluoro-2-methyl-quinolin-4-yl)-4,5,6,7-tetrahydro-2H-indazol-5-yl]-amide] | > 128 | > 128 | 8 (≈ 16.4 µM) |
| COc1ccc2nccc(-n3cc4c(n3)CCC(NC(=O)c3ccc(C)c([N+](=O)[O-])c3)C4)c2n1 (stereo not drawn) [Example 110, N-[2-(6-Methoxy-[1,5]naphthyridin-4-yl)-4,5,6,7-tetrahydro-2H-indazol-5-yl]-4-methyl-3-nitro-benzamide] | 8 (≈ 17.4 µM) | > 128 | 0.25 (≈ 0.545 µM) |
| COc1ccc2nccc(-n3cc4c(n3)CCC(NC(=O)c3cc(F)c5c(c3)OCCO5)C4)c2c1 (stereo not drawn) [Example 128, 8-Fluoro-2,3-dihydro-benzo[1,4]dioxine-6-carboxylic acid [2-(6-methoxy-quinolin-4-yl)-4,5,6,7-tetrahydro-2H-indazol-5-yl]-amide] | 8 (≈ 16.9 µM) | > 128 | 2 (≈ 4.22 µM) |
| COc1ccc2nccc(-n3cc4c(n3)CCC(NC(=O)/C=C/c3ccccc3)C4)c2c1 (stereo not drawn) [Example 29, N-[2-(6-Methoxy-quinolin-4-yl)-4,5,6,7-tetrahydro-2H-indazol-5-yl]-3-phenyl-acrylamide] | 4 (≈ 9.42 µM) | > 128 | 1 (≈ 2.36 µM) |
| COc1ccc2nccc(-n3cc4c(n3)CCC(NC(=O)c3cc5cc(Br)ccc5[nH]3)C4)c2c1 (stereo not drawn) [Example 76, 5-Bromo-1H-indole-2-carboxylic acid [2-(6-methoxy-quinolin-4-yl)-4,5,6,7-tetrahydro-2H-indazol-5-yl]-amide] | > 128 | > 128 | 2 (≈ 3.87 µM) |
| COc1ccc2nccc(-n3cc4c(n3)CCC(NCc3ccc(N(C)C)c(C#N)c3F)C4)c2c1 (stereo not drawn) [Example 126, 6-Dimethylamino-2-fluoro-3-{[2-(6-methoxy-quinolin-4-yl)-4,5,6,7-tetrahydro-2H-indazol-5-ylamino]-methyl}-benzonitrile] | 2 (≈ 4.25 µM) | > 128 | 1 (≈ 2.13 µM) |
| COc1ccc2nccc(-n3ncc4c3CCC(NC(=O)c3cc5c(cc3Br)SCC(=O)N5)C4)c2c1 (stereo not drawn) [Example 98, 7-Bromo-3-oxo-3,4-dihydro-2H-benzo[1,4]thiazine-6-carboxylic acid [1-(6-methoxy-quinolin-4-yl)-4,5,6,7-tetrahydro-1H-indazol-5-yl]-amide] | 64 (≈ 113 µM) | > 128 | 16 (≈ 28.3 µM) |
| COc1ccc2nccc(-n3cc4c(n3)CCC(NC/C(C)=C/c3ccccc3)C4)c2c1 (stereo not drawn) [Example 56, [2-(6-Methoxy-quinolin-4-yl)-4,5,6,7-tetrahydro-2H-indazol-5-yl]-(2-methyl-3-phenyl-allyl)-amine] | 2 (≈ 4.71 µM) | 128 (≈ 301 µM) | 1 (≈ 2.36 µM) |
| COc1ccc2nccc(-n3cc4c(n3)CCC(NC(=O)/C=C/c3ccccc3)C4)c2n1 (stereo not drawn) [Example 10, N-[2-(6-Methoxy-[1,5]naphthyridin-4-yl)-4,5,6,7-tetrahydro-2H-indazol-5-yl]-3-phenyl-acrylamide] | 2 (≈ 4.7 µM) | > 128 | 0.25 (≈ 0.588 µM) |
| COc1ccc2nccc(-n3cc4c(n3)CCC(NCC(=O)Nc3cccc(Cl)c3)C4)c2n1 (stereo not drawn) [Example 123, N-(3-Chloro-phenyl)-2-[2-(6-methoxy-[1,5]naphthyridin-4-yl)-4,5,6,7-tetrahydro-2H-indazol-5-ylamino]-acetamide] | > 128 | > 128 | 1 (≈ 2.16 µM) |
| COc1ccc2nccc(-n3cc4c(n3)CCC(NCc3cc(OC)c(OC)cc3F)C4)c2n1 (stereo not drawn) [Example 88, (2-Fluoro-4,5-dimethoxy-benzyl)-[2-(6-methoxy-[1,5]naphthyridin-4-yl)-4,5,6,7-tetrahydro-2H-indazol-5-yl]-amine] | 8 (≈ 17.3 µM) | > 128 | 4 (≈ 8.63 µM) |
| COc1ccc2nccc(-n3cc4c(n3)CCC(NCC(=O)NCc3ccccc3)C4)c2n1 (stereo not drawn) [Example 84, N-Benzyl-2-[2-(6-methoxy-[1,5]naphthyridin-4-yl)-4,5,6,7-tetrahydro-2H-indazol-5-ylamino]-acetamide] | 16 (≈ 36.2 µM) | > 128 | 2 (≈ 4.52 µM) |
| COc1ccc2nccc(-n3cc4c(n3)CCC(NCC(=O)Nc3ccccc3)C4)c2n1 (stereo not drawn) [Example 59, 2-[2-(6-Methoxy-[1,5]naphthyridin-4-yl)-4,5,6,7-tetrahydro-2H-indazol-5-ylamino]-N-phenyl-acetamide] | 8 (≈ 18.7 µM) | 128 (≈ 299 µM) | 1 (≈ 2.33 µM) |
